Data as given in article PMC11871066, “Structure-based discovery of hydrocarbon-stapled paxillin peptides that block FAK scaffolding in cancer” (Nature Communications, 2025).

Legend:
Experiment in all cases: Eurofins KINOMEscan profiling, 97 kinases
[1] = target: 97 kinases (kinase named in endpoint) (Homo sapiens, UniProt P36896); conditions: read-out: % Ctrl, ACVR1B
[2] = target: 97 kinases (kinase named in endpoint) (Homo sapiens, UniProt O15111); conditions: read-out: % Ctrl, IKK-alpha
[3] = target: 97 kinases (kinase named in endpoint) (Homo sapiens, UniProt Q8NI60); conditions: read-out: % Ctrl, ADCK3
[4] = target: 97 kinases (kinase named in endpoint) (Homo sapiens, UniProt O00750); conditions: read-out: % Ctrl, PIK3C2B
[5] = target: 97 kinases (kinase named in endpoint) (Homo sapiens, UniProt P36507); conditions: read-out: % Ctrl, MEK2
[6] = target: 97 kinases (kinase named in endpoint) (Homo sapiens, UniProt Q13873); conditions: read-out: % Ctrl, BMPR2
[7] = target: 97 kinases (kinase named in endpoint) (Homo sapiens, UniProt Q02763); conditions: read-out: % Ctrl, TIE2
[8] = target: 97 kinases (kinase named in endpoint) (Homo sapiens, UniProt Q86UX6); conditions: read-out: % Ctrl, YANK3
[9] = target: 97 kinases (kinase named in endpoint) (Homo sapiens, UniProt Q02156); conditions: read-out: % Ctrl, PRKCE
[10] = target: 97 kinases (kinase named in endpoint) (Homo sapiens, UniProt P00519, E255K); conditions: read-out: % Ctrl, ABL1(E255K)-phosphorylated
[11] = target: 97 kinases (kinase named in endpoint) (Homo sapiens, UniProt Q9H093); conditions: read-out: % Ctrl, SNARK
[12] = target: 97 kinases (kinase named in endpoint) (Homo sapiens, UniProt P45983); conditions: read-out: % Ctrl, JNK1
[13] = target: 97 kinases (kinase named in endpoint) (Homo sapiens, UniProt P36897); conditions: read-out: % Ctrl, TGFBR1
[14] = target: 97 kinases (kinase named in endpoint) (Homo sapiens, UniProt O96013); conditions: read-out: % Ctrl, PAK4
[15] = target: 97 kinases (kinase named in endpoint) (Homo sapiens, UniProt Q00536); conditions: read-out: % Ctrl, PCTK1
[16] = target: 97 kinases (kinase named in endpoint) (Homo sapiens, UniProt P52333); conditions: read-out: % Ctrl, JAK3(JH1domain-catalytic)
[17] = target: 97 kinases (kinase named in endpoint) (Homo sapiens, UniProt P48730); conditions: read-out: % Ctrl, CSNK1D
[18] = target: 97 kinases (kinase named in endpoint) (Homo sapiens, UniProt Q9BUB5); conditions: read-out: % Ctrl, MKNK1
[19] = target: 97 kinases (kinase named in endpoint) (Homo sapiens, UniProt P48736); conditions: read-out: % Ctrl, PIK3CG
[20] = target: 97 kinases (kinase named in endpoint) (Homo sapiens, UniProt Q13177); conditions: read-out: % Ctrl, PAK2
[21] = target: 97 kinases (kinase named in endpoint) (Homo sapiens, UniProt P49137); conditions: read-out: % Ctrl, MAPKAPK2
[22] = target: 97 kinases (kinase named in endpoint) (Homo sapiens, UniProt P04626); conditions: read-out: % Ctrl, ERBB2
[23] = target: 97 kinases (kinase named in endpoint) (Homo sapiens, UniProt Q9Y463); conditions: read-out: % Ctrl, DYRK1B
[24] = target: 97 kinases (kinase named in endpoint) (Homo sapiens, UniProt O14965); conditions: read-out: % Ctrl, AURKA
[25] = target: 97 kinases (kinase named in endpoint) (Homo sapiens, UniProt Q9Y6R4); conditions: read-out: % Ctrl, MAP3K4
[26] = target: 97 kinases (kinase named in endpoint) (Homo sapiens, UniProt Q9P1W9); conditions: read-out: % Ctrl, PIM2
[27] = target: 97 kinases (kinase named in endpoint) (Homo sapiens, UniProt P53779); conditions: read-out: % Ctrl, JNK3
[28] = target: 97 kinases (kinase named in endpoint) (Homo sapiens, UniProt Q15831); conditions: read-out: % Ctrl, LKB1

Chain of 97 kinases (kinase named in endpoint) (Homo sapiens, UniProt Q9Y6R4) (Q9Y6R4 whole entry): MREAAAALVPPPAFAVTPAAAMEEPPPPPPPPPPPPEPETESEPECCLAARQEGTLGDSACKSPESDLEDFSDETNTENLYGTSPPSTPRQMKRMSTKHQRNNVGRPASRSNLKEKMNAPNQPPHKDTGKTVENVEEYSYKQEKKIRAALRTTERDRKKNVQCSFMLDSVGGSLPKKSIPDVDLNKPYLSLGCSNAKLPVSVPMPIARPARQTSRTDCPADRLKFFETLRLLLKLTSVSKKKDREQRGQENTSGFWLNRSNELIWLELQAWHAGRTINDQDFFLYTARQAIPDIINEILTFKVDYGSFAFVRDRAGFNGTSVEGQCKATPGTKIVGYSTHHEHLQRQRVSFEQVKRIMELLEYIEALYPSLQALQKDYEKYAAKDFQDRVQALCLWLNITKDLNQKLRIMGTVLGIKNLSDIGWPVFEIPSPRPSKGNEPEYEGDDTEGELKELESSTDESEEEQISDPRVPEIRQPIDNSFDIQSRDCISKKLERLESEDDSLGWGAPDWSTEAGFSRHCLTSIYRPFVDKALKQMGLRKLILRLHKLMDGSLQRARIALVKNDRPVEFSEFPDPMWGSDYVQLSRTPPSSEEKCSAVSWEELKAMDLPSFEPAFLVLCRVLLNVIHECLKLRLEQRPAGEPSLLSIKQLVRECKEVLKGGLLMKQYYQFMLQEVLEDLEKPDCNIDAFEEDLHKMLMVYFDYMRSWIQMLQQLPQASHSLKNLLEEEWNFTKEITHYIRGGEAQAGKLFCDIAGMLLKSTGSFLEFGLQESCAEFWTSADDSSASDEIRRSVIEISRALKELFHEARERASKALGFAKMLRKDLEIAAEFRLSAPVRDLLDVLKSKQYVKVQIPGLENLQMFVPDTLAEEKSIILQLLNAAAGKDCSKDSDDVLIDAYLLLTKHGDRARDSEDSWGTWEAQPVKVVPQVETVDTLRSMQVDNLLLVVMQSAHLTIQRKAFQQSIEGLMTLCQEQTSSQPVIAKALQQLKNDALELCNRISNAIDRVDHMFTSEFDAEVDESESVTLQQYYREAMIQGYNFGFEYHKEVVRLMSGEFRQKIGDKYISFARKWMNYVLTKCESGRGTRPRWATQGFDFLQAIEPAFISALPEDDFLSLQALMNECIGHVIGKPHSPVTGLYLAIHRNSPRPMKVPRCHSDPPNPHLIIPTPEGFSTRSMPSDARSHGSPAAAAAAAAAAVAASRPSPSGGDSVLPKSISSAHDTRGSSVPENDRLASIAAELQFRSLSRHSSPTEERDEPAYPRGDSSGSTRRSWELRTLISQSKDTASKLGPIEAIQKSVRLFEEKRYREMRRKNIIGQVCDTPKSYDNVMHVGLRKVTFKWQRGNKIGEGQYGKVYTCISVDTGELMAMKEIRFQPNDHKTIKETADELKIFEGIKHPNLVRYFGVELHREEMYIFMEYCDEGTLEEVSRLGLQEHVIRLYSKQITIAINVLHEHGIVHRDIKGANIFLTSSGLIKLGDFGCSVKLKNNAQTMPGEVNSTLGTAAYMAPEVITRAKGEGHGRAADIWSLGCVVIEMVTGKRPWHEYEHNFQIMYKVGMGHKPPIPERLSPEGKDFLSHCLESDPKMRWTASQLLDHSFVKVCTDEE
Chain of 97 kinases (kinase named in endpoint) (Homo sapiens, UniProt Q13873) (Q13873 27-1038): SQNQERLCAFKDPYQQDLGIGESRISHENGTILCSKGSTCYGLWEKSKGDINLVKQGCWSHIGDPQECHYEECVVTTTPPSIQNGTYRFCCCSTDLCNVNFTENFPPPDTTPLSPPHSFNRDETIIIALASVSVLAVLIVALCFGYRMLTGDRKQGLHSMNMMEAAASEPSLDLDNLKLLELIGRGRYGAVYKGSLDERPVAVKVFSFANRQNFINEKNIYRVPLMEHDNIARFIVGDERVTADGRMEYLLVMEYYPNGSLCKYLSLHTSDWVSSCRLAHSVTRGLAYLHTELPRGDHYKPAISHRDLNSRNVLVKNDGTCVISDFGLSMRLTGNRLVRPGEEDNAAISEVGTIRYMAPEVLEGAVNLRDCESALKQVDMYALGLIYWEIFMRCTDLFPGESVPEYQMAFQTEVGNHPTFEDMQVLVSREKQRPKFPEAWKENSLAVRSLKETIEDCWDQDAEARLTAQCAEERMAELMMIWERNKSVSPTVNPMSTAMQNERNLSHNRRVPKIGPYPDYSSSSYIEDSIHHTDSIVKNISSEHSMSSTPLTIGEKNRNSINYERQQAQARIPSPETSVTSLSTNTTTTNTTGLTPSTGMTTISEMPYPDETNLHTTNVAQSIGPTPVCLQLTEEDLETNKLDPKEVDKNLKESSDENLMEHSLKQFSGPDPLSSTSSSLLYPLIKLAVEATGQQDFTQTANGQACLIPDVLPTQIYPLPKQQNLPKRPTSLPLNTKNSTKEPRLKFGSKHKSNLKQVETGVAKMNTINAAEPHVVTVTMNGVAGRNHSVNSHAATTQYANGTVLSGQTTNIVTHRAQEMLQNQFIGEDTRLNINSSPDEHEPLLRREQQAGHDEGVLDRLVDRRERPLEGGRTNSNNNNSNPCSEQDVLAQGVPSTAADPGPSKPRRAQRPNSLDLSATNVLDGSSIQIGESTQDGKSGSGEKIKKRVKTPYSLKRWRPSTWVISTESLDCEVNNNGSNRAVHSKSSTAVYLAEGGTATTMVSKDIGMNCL
Chain of 97 kinases (kinase named in endpoint) (Homo sapiens, UniProt Q9Y463) (Q9Y463 whole entry): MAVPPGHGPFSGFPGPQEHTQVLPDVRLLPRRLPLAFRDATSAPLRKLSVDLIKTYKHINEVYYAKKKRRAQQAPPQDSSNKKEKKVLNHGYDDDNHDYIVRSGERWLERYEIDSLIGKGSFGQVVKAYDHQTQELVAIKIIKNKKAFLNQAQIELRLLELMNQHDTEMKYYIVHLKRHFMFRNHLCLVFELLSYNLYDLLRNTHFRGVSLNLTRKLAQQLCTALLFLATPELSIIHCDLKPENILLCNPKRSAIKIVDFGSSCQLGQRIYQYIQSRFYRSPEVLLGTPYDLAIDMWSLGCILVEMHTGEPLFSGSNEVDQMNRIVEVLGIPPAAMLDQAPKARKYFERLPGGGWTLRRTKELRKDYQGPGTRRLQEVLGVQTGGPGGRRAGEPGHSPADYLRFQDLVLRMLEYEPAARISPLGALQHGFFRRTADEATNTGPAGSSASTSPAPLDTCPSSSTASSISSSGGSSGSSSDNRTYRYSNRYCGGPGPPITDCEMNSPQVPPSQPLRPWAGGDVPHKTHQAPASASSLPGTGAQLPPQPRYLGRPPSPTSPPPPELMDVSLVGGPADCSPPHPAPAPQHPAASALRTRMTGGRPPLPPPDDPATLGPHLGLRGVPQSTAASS
Chain of 97 kinases (kinase named in endpoint) (Homo sapiens, UniProt Q9H093) (Q9H093 whole entry): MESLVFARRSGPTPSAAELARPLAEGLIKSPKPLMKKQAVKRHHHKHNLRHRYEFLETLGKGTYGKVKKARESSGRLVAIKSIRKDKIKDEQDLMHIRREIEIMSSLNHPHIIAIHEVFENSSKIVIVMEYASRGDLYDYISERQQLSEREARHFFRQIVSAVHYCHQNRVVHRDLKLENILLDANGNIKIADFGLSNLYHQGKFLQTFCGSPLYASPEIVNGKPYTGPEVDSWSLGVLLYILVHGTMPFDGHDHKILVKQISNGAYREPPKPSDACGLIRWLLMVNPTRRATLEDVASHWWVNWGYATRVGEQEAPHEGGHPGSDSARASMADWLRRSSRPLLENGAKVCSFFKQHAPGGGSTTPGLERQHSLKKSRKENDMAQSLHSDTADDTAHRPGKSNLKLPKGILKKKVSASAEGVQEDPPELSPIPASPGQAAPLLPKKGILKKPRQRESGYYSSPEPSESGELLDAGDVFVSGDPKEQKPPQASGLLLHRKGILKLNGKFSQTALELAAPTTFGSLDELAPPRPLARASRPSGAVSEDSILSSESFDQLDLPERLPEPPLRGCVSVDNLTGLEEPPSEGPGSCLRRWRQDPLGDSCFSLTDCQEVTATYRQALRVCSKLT
Chain of 97 kinases (kinase named in endpoint) (Homo sapiens, UniProt P45983) (P45983 whole entry): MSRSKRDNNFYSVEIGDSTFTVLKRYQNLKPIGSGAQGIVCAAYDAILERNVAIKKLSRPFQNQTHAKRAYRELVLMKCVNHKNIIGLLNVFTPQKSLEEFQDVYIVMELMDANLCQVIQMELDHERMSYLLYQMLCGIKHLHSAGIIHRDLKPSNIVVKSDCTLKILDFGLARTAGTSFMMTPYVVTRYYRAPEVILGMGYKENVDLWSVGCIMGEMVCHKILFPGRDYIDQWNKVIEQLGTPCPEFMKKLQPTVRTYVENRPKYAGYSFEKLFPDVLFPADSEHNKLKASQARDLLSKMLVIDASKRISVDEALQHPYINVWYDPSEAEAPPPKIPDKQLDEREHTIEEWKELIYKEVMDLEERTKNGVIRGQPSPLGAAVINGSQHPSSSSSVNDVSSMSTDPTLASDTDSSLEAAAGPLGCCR
Chain of 97 kinases (kinase named in endpoint) (Homo sapiens, UniProt P36896) (P36896 24-505): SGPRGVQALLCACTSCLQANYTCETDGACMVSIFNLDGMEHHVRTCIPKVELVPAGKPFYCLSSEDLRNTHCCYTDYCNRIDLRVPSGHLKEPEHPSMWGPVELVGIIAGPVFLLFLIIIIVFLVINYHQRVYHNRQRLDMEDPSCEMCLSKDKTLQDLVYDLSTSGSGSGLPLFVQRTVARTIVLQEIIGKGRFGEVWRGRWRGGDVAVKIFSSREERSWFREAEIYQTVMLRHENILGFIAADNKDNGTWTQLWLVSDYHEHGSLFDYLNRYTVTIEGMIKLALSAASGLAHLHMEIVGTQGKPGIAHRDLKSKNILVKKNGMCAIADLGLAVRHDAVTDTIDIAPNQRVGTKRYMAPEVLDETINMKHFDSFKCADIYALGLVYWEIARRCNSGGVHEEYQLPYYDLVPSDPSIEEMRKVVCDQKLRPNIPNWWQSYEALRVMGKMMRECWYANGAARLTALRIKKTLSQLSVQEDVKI

| Structure (SMILES) | remaining binding at 1 µM [1] [%] | remaining binding at 1 µM [2] [%] | remaining binding at 1 µM [3] [%] | remaining binding at 1 µM [4] [%] | remaining binding at 1 µM [5] [%] | remaining binding at 1 µM [6] [%] | remaining binding at 1 µM [7] [%] | remaining binding at 1 µM [8] [%] | remaining binding at 1 µM [9] [%] | remaining binding at 1 µM [10] [%] | remaining binding at 1 µM [11] [%] | remaining binding at 1 µM [12] [%] | remaining binding at 1 µM [13] [%] | remaining binding at 1 µM [14] [%] | remaining binding at 1 µM [15] [%] | remaining binding at 1 µM [16] [%] | remaining binding at 1 µM [17] [%] | remaining binding at 1 µM [18] [%] | remaining binding at 1 µM [19] [%] | remaining binding at 1 µM [20] [%] | also measured |
| --- | --- | --- | --- | --- | --- | --- | --- | --- | --- | --- | --- | --- | --- | --- | --- | --- | --- | --- | --- | --- | --- |
| CCCCCCCCCCCCCC(=O)N[C@@H](CC(N)=O)C(=O)N[C@@H](CC(C)C)C(=O)N[C@]1(C)CCCCCCC=CCCC[C@@](C)(C(=O)N[C@@H](CCC(=O)O)C(=O)N[C@@H](CC(C)C)C(=O)N[C@@H](CC(N)=O)C(N)=O)NC(=O)[C@H](CC(C)C)NC(=O)[C@H](CC(C)C)NC(=O)[C@H](CCCNC(=N)N)NC(=O)[C@H](CC(=O)O)NC(=O)[C@H](CC(C)C)NC(=O)[C@H](CCC(=O)O)NC1=O [compound 2012] | 81 | 100 | 100 | 100 | 79 | 100 | 98 | 91 | 53 | 70 | 100 | 97 | 93 | 100 | 100 | 83 | 97 | 100 | 99 | 100 | remaining binding at 1 µM [21]: 100%; remaining binding at 1 µM [22]: 55%; remaining binding at 1 µM [23]: 91%; remaining binding at 1 µM [24]: 100%; remaining binding at 1 µM [25]: 90%; remaining binding at 1 µM [26]: 100%; remaining binding at 1 µM [27]: 100%; remaining binding at 1 µM [28]: 85% |
| CNC(=O)c1ccc(Nc2ncc(C(F)(F)F)c(NCc3nccnc3N(C)S(C)(=O)=O)n2)cc1 [defactinib] | 83 | 100 | 93 | 100 | 64 | 25 | 41 | 89 | 42 | 82 | 13 | 61 | 91 | 7.4 | 48 | 0 | 93 | 100 | 85 | 45 | remaining binding at 1 µM [21]: 100%; remaining binding at 1 µM [22]: 65%; remaining binding at 1 µM [23]: 14%; remaining binding at 1 µM [24]: 3.9%; remaining binding at 1 µM [25]: 69%; remaining binding at 1 µM [26]: 100%; remaining binding at 1 µM [27]: 90%; remaining binding at 1 µM [28]: 90% |
